The target of assay [1] is T1, Recombinant (1-346) HPK1 (h) (Homo sapiens, UniProt Q92918).
T1 construct: Recombinant (1-346) HPK1 (h) is incubated with 8 mM MOPS pH 7.0
T1 sequence (Q92918 1-346): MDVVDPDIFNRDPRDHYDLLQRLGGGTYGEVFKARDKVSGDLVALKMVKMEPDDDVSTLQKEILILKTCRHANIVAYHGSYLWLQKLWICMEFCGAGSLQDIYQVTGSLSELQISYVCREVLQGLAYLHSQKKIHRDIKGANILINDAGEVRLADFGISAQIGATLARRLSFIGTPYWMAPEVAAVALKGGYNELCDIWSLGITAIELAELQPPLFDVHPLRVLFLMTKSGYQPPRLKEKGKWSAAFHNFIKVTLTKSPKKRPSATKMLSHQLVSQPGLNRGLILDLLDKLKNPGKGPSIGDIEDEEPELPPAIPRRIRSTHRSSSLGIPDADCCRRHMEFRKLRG
Nature of the assay: HPK1 Human STE Kinase Enzymatic Radiometric Assay. As to conditions: read-out: HPK1 IC50 nM Range*. It is filed as biochemical. How it is done: A stock solution of 10 mM of test compound is prepared in DMSO. The compound plate was prepared by 3-fold and 9-point serial dilutions. […] The reaction is initiated by The addition of the Mg/ATP mix. After incubation for 40 minutes at RT, the reaction is stopped by the addition of phosphoric acid to a concentration of 0.5%.

The target in assay [2] is Lck (h) (Homo sapiens, UniProt P06239). Nature of the assay: Lck Human  Kinase Enzymatic Radiometric Assay. It is filed as biochemical. A digest of the protocol:
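Substrate 33P-incorporation measured by scintillation counting after spotting on P30 filtermat and phosphoric acid washes. Human Lck reacted 40 min at RT in 50 mM Tris pH 7.5 with 10 mM MgAcetate, [gamma-33P]-ATP, 250 uM Cdc2 peptide, 0.1 mM EGTA and 0.1 mM Na3VO4.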

Structures can show the parent of a compound that is named as a salt. Where two headings read alike, the source gives them in different places.

Chain of Lck (h) (P06239 whole entry): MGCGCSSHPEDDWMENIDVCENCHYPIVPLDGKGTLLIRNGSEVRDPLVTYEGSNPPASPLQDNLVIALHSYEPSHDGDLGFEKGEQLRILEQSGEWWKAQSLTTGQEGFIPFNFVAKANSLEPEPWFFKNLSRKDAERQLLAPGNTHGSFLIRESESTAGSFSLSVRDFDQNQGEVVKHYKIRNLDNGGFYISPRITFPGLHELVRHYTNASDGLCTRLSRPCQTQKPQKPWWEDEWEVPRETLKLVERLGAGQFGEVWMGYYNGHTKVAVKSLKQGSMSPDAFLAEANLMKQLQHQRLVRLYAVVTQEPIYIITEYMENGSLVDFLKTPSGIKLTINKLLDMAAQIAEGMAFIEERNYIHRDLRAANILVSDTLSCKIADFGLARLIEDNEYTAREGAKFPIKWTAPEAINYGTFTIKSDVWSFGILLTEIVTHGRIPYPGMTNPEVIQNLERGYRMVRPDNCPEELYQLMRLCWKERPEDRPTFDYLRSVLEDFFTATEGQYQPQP

Consider `CC(C)N1CCc2cc(-c3cc(-c4ccc5c(c4)CCNC5=O)c(N)nc3F)nn2CC1=O` [I-228, 2-(6-amino-2-fluoro-5-(1-oxo-1,2,3,4-tetrahydroisoquinolin-6-yl)pyridin-3-yl)-6-isopropyl-5,6-dihydro-4H-pyrazolo[1,5-d][1,4]diazepin-7(8H)-one], for which the values for the IC50 in assay [1] and in assay [2] (read-out: Lck IC50 nM Range*) were 11 to 100 nM and more than 1000 nM, respectively.
In the case of `Nc1nc(F)c(-c2cc3n(n2)CC(=O)NCC3)cc1-c1ccc2c(c1)CCNC2=O` [I-229, 2-(6-amino-2-fluoro-5-(1-oxo-1,2,3,4-tetrahydroisoquinolin-6-yl)pyridin-3-yl)-5,6-dihydro-4H-pyrazolo[1,5-d][1,4]diazepin-7(8H)-one], the IC50 in assay [1] was 11 to 100 nM; in assay [2] (read-out: Lck IC50 nM Range*), more than 1000 nM.
Turning to `CN1CC=C(c2ccc(-c3cc(-c4ccc5c(c4)CCNC5=O)c(N)nc3Cl)cc2)CC1` [I-230, 6-(2-amino-6-chloro-5-(4-(1-methyl-1,2,3,6-tetrahydropyridin-4-yl)phenyl)pyridin-3-yl)-3,4-dihydroisoquinolin-1(2H)-one], the IC50 was 11 to 100 nM in assay [1] and more than 1000 nM in assay [2] (read-out: Lck IC50 nM Range*).
With `CN1CCC(c2ccc(-c3cc(-c4ccc5c(c4)CCNC5=O)c(N)nc3Cl)cc2)CC1` [I-231, 6-(2-amino-6-chloro-5-(4-(1-methylpiperidin-4-yl)phenyl)pyridin-3-yl)-3,4-dihydroisoquinolin-1(2H)-one], the IC50 was 11 to 100 nM in assay [1] and more than 1000 nM in assay [2] (read-out: Lck IC50 nM Range*).
As to `CN1CC=C(c2ccc(-c3cc(-c4cc5c(cc4F)C(=O)NCC5)c(N)nc3Cl)cc2)CC1` [I-232, 6-(2-amino-6-chloro-5-(4-(1-methyl-1,2,3,6-tetrahydropyridin-4-yl)phenyl)pyridin-3-yl)-7-fluoro-3,4-dihydroisoquinolin-1(2H)-one], the IC50 in assay [1] was 11 to 100 nM; in assay [2] (read-out: Lck IC50 nM Range*), more than 1000 nM.
In the same order, the values of `CN1CCC(c2ccc(-c3cc(-c4cc5c(cc4F)C(=O)NCC5)c(N)nc3Cl)cc2)CC1` [I-233, 6-(2-amino-6-chloro-5-(4-(1-methylpiperidin-4-yl)phenyl)pyridin-3-yl)-7-fluoro-3,4-dihydroisoquinolin-1(2H)-one] are 11 to 100 nM and more than 1000 nM.
Take `Cc1c(N)cncc1-c1cc(-c2ccc3c(c2)CCNC3=O)c(N)nc1F` [I-234, 6-(5,6-diamino-2-fluoro-4′-methyl-[3,3′-bipyridin]-5-yl)-3,4-dihydroisoquinolin-1(2H)-one 2,2,2-trifluoroacetate]: the IC50 in assay [1] and in assay [2] (read-out: Lck IC50 nM Range*) was more than 1000 nM each time.
As for `CCN1CCC(c2ccc(-c3cc(-c4ccc5c(c4)CCNC5=O)c(N)nc3F)cc2)C1` (stereo not drawn) [I-235, 6-(2-amino-5-(4-(1-ethylpyrrolidin-3-yl)phenyl)-6-fluoropyridin-3-yl)-3,4-dihydroisoquinolin-1(2H)-one], the IC50 in assay [1] is 0.1 to 10 nM; in assay [2] (read-out: Lck IC50 nM Range*), more than 1000 nM.
In the same order, the values of `Nc1nc(F)c(-c2ccc(N3CCN(CC(F)F)CC3)cc2)cc1-c1cc2c(cc1F)C(=O)NCC2` [I-236, 6-(2-amino-5-(4-(4-(2,2-difluoroethyl)piperazin-1-yl)phenyl)-6-fluoropyridin-3-yl)-7-fluoro-3,4-dihydroisoquinolin-1(2H)-one] are 0.1 to 10 nM and more than 1000 nM.
Regarding `Nc1nc(F)c(-c2ccc(N3CCN(CC(F)(F)F)CC3)cc2)cc1-c1cc2c(cc1F)C(=O)NCC2` [I-237, 6-(2-amino-6-fluoro-5-(4-(4-(2,2,2-trifluoroethyl)piperazin-1-yl)phenyl)pyridin-3-yl)-7-fluoro-3,4-dihydroisoquinolin-1(2H)-one], the IC50 in assay [1] is 0.1 to 10 nM; in assay [2] (read-out: Lck IC50 nM Range*), more than 1000 nM.
The matching figures for `Nc1nc(F)c(-c2ccc(C3CCNCC3)cc2)cc1-c1cc2c(cc1F)C(=O)NCC2` [I-238, 6-(2-amino-6-fluoro-5-(4-(piperidin-4-yl)phenyl)pyridin-3-yl)-7-fluoro-3,4-dihydroisoquinolin-1(2H)-one 2,2,2-trifluoroacetate]: 0.1 to 10 nM and more than 1000 nM.
In the same order, the values of `CC(C)N1CCC(F)(c2ccc(-c3cc(-c4ccc5c(c4)CCNC5=O)c(N)nc3F)cc2)CC1` [I-239, 6-(2-amino-6-fluoro-5-(4-(4-fluoro-1-isopropylpiperidin-4-yl)phenyl)pyridin-3-yl)-3,4-dihydroisoquinolin-1(2H)-one] are 0.1 to 10 nM and more than 1000 nM.
Take `Nc1nc(F)c(-c2ccc(N3CCN(CCC(F)(F)F)CC3)cc2)cc1-c1ccc2c(c1)CCNC2=O` [I-240, 6-(2-amino-6-fluoro-5-(4-(4-(3,3,3-trifluoropropyl)piperazin-1-yl)phenyl)pyridin-3-yl)-3,4-dihydroisoquinolin-1(2H)-one]: the IC50 in assay [1] is 0.1 to 10 nM; in assay [2] (read-out: Lck IC50 nM Range*), more than 1000 nM.
The matching figures for `COCCN1CCC(c2ccc(-c3cc(-c4cc5c(cc4F)C(=O)NCC5)c(N)nc3F)cc2)CC1` [I-241, 6-(2-amino-6-fluoro-5-(4-(1-(2-methoxyethyl)piperidin-4-yl)phenyl)pyridin-3-yl)-7-fluoro-3,4-dihydroisoquinolin-1(2H)-one]: 0.1 to 10 nM and more than 1000 nM.
The matching figures for `Nc1nc(F)c(-c2ccc(C3CCN(CC4CC4)CC3)cc2)cc1-c1cc2c(cc1F)C(=O)NCC2` [I-242, 6-(2-amino-5-(4-(1-(cyclopropylmethyl)piperidin-4-yl)phenyl)-6-fluoropyridin-3-yl)-7-fluoro-3,4-dihydroisoquinolin-1(2H)-one]: 0.1 to 10 nM and more than 1000 nM.
In the same order, the values of `Nc1nc(F)c(-c2ccc(N3CCN(CCC(F)(F)F)CC3)cc2)cc1-c1cc2c(cc1F)C(=O)NCC2` [I-243, 6-(2-amino-6-fluoro-5-(4-(4-(3,3,3-trifluoropropyl)piperazin-1-yl)phenyl)pyridin-3-yl)-7-fluoro-3,4-dihydroisoquinolin-1(2H)-one] are 0.1 to 10 nM and more than 1000 nM.
For `CC(C)N1CCC(c2ccc(-c3cc(-c4cc5c(cc4F)C(=O)NCC5)c(N)nc3F)cc2)CC1` [I-244, 6-(2-amino-6-fluoro-5-(4-(1-isopropylpiperidin-4-yl)phenyl)pyridin-3-yl)-7-fluoro-3,4-dihydroisoquinolin-1(2H)-one], the results for the concentration for half-maximal inhibition (IC50) in assay [1] and in assay [2] (read-out: Lck IC50 nM Range*) were 0.1 to 10 nM and more than 1000 nM, respectively.
Turning to `CCN1CCC(c2ccc(-c3cc(-c4cc5c(cc4F)C(=O)NCC5)c(N)nc3F)cc2)CC1` [I-245, 6-(2-amino-5-(4-(1-ethylpiperidin-4-yl)phenyl)-6-fluoropyridin-3-yl)-7-fluoro-3,4-dihydroisoquinolin-1(2H)-one], the half-maximal inhibitory concentration (IC50) in assay [1] is 0.1 to 10 nM; in assay [2] (read-out: Lck IC50 nM Range*), more than 1000 nM.
In the same order, the values of `CN1CCN(c2ccc(-c3cc(-c4cc5c(cc4F)C(=O)NCC5)c(N)nc3F)cc2)CC1` [I-246, 6-(2-amino-6-fluoro-5-(4-(4-methylpiperazin-1-yl)phenyl)pyridin-3-yl)-7-fluoro-3,4-dihydroisoquinolin-1(2H)-one] are 0.1 to 10 nM and more than 1000 nM.
For the compound `CN1CCN(c2ccc(-c3cc(-c4cc5c(cc4F)C(=O)NCC5)c(N)nc3F)cc2F)CC1` [I-247, 6-(2-amino-6-fluoro-5-(3-fluoro-4-(4-methylpiperazin-1-yl)phenyl)pyridin-3-yl)-7-fluoro-3,4-dihydroisoquinolin-1(2H)-one], the IC50 was 0.1 to 10 nM in assay [1] and more than 1000 nM in assay [2] (read-out: Lck IC50 nM Range*).
Consider `Nc1nc(F)c(-c2ccc(C3CCN(CC(F)(F)F)CC3)cc2)cc1-c1cc2c(cc1F)C(=O)NCC2` [I-248, 6-(2-amino-6-fluoro-5-(4-(1-(2,2,2-trifluoroethyl)piperidin-4-yl)phenyl)pyridin-3-yl)-7-fluoro-3,4-dihydroisoquinolin-1(2H)-one], for which the IC50 in assay [1] was 11 to 100 nM; in assay [2] (read-out: Lck IC50 nM Range*) it was more than 1000 nM.
Turning to `CN1CCN(c2ccc(-c3cc(-c4cc5c(cc4F)C(=O)NCC5)c(N)nc3F)cc2C(F)(F)F)CC1` [I-249, 6-(2-amino-6-fluoro-5-(4-(4-methylpiperazin-1-yl)-3-(trifluoromethyl)phenyl)pyridin-3-yl)-7-fluoro-3,4-dihydroisoquinolin-1(2H)-one], the IC50 in assay [1] is 0.1 to 10 nM; in assay [2] (read-out: Lck IC50 nM Range* (number printed instead of a class)) it was 381 nM.
For `C[C@@H]1CN(c2cc(F)c(-c3cc(-c4ccc5c(c4)CCNC5=O)c(N)nc3F)cc2[N+](=O)[O-])C[C@H](C)N1C` [I-250, 6-(2-amino-6-fluoro-5-(2-fluoro-5-nitro-4-((3R,5S)-3,4,5-trimethylpiperazin-1-yl)phenyl)pyridin-3-yl)-3,4-dihydroisoquinolin-1(2H)-one formate], the IC50 in assay [1] was 11 to 100 nM; in assay [2] (read-out: Lck IC50 nM Range*), more than 1000 nM.
The matching figures for `COCCN1CCC(F)(c2ccc(-c3cc(-c4ccc5c(c4)CCNC5=O)c(N)nc3F)cc2)CC1` [I-251, 6-(2-amino-6-fluoro-5-(4-(4-fluoro-1-(2-methoxyethyl)piperidin-4-yl)phenyl)pyridin-3-yl)-3,4-dihydroisoquinolin-1(2H)-one]: 0.1 to 10 nM and more than 1000 nM.

These data come from patent publication US20240343704A1, “HALO-SUBSTITUTED AMINO PYRIDINE COMPOUNDS AS INHIBITORS OF THE HAEMATOPOIETIC PROGENITOR KINASE 1 (HPK1)” (priority 2021, published 2024).
